From patent US4379155A, “3,5-Disubstituted-1H-1,2,4-triazole derivatives” (priority 1981, dated 1983)

tested on: hamsters; experiment: Post-coital antifertility activity in pregnant hamsters, subcutaneous (days 4-8, autopsy day 14); format: in vivo, Syrian golden hamsters; conditions: 10 mg/kg s.c. daily for 5 days, days 4-8 of pregnancy, sesame oil
Description: Representative experiments for assessing antifertility activity were carried out with femal Syrian golden hamsters weighing 100 to 130 g. The animals were mated and the presence of sperm in the vagina was taken as evidence of mating. […] Pregnancy was later confirmed at the time of autopsy by presence of fetuses or implantation sites in the uterus. Even if an animal aborts the fetus, implantation scars still remain as evidence that the animal has been pregnant.
The animals were autopsied on day 14 of pregnancy and the uteri were examined for evidence of pregnancy (implantation sites, fetal resorptions or live fetuses), hemorrage, and evidence of abnormalities of the uterus, placenta or fetuses.

Structure (SMILES) | antifertility activity (active: reduction of live fetuses in at least 60% of the treated animals)
c1ccc(-c2n[nH]c(-c3ccccc3)n2)cc1 [3,5-diphenyl-1H-1,2,4-triazole, reference compound] | much less active
COc1cccc(-c2n[nH]c(-c3ccccc3C)n2)c1 [Example 1, 3-(m-Methoxyphenyl)-5-(o-tolyl)-1H-1,2,4-triazole] | active
COc1ccccc1-c1n[nH]c(-c2ccccc2C)n1 [Example 4, 3-(o-Methoxyphenyl)-5-(o-tolyl)-1H-1,2,4-triazole] | active
CCc1ccccc1-c1nc(-c2cccc(F)c2)n[nH]1 [Example 18, 5-(o-Ethylphenyl)-3-(m-fluorophenyl)-1H-1,2,4-triazole] | active
CCc1ccccc1-c1nc(-c2ccc3c(c2)OCO3)n[nH]1 [Example 22, 5-(o-Ethylphenyl)-3-(3,4-methylenedioxyphenyl)-1H-1,2,4-triazole] | active
Cc1ccc(-c2nc(-c3ccccc3)n[nH]2)c(C)c1 [Example 25, 5-(2,4-Dimethylphenyl)-3-phenyl-1H-1,2,4-triazole] | active
COc1cccc(-c2n[nH]c(-c3ccc(C)cc3C)n2)c1 [Example 26, 5-(2,4-Dimethylphenyl)-3-(m-methoxyphenyl)-1H-1,2,4-triazole] | active
Cc1cc(Cl)ccc1-c1nc(-c2ccccc2)n[nH]1 [Example 29, 5-(4-Chloro-2-methylphenyl)-3-phenyl-1H-1,2,4-triazole] | active
COc1cccc(-c2n[nH]c(-c3ccc(Cl)cc3C)n2)c1 [Example 30, 5-(4-Chloro-2-methylphenyl)-3-(m-methoxyphenyl)-1H-1,2,4-triazole] | active
COc1cccc(-c2n[nH]c(-c3cc(Cl)ccc3C)n2)c1 [Example 32, 5-(5-Chloro-2-methylphenyl)-3-(m-methoxyphenyl)-1H-1,2,4-triazole] | active

tested on: rats; experiment: Anti-reproductive activity in pregnant rats, subcutaneous (5 days from day 6, autopsy day 16); format: in vivo, Sprague-Dawley rats; conditions: Rattus norvegicus, sc, 384 h, 20 mg/kg s.c., five consecutive days from day 6 of pregnancy, sesame oil, read-out: reduction of live fetuses, % of the treated rats
Description: The same criteria and experimental conditions as above were also applied when the anti-reproductive activity of the compounds of the invention was investigated in other animal species such as, for instance, rats, dogs, monkeys and baboons. In representative experiments, female Sprague-Dawley rats weighing from 200 to 300 g. were treated subcutaneously with a dosage of 20 mg/kg of the compound to be tested, dissolved in sesame oil, for five consecutive days starting from day 6 of pregnancy.

Structure (SMILES) | responders at 20 mg/kg [%]
CCOc1cccc(-c2n[nH]c(-c3ccccc3C)n2)c1 [Example 9, 3-(m-Ethoxyphenyl)-5-(o-tolyl)-1H-1,2,4-triazole] | ≥ 60
C=CCOc1cccc(-c2n[nH]c(-c3ccccc3C)n2)c1 [Example 10, 3-(m-Allyloxyphenyl)-5-(o-tolyl)-1H-1,2,4-triazole] | ≥ 60
Cc1ccccc1-c1nc(-c2ccc(-c3ccccc3)cc2)n[nH]1 [Example 11, 3-(1,1'-Biphenyl-4-yl)-5-(o-tolyl)-1H-1,2,4-triazole] | ≥ 60
C=CCOc1cccc(-c2n[nH]c(-c3ccccc3CC)n2)c1 [Example 13, 3-(m-Allyloxyphenyl)-5-(o-ethylphenyl)-1H-1,2,4-triazole] | ≥ 60
CCc1ccccc1-c1nc(-c2ccc(Cl)cc2)n[nH]1 [Example 14, 3-(p-Chlorophenyl)-5-(o-ethylphenyl)-1H-1,2,4-triazole] | ≥ 60
CC(C)c1ccccc1-c1nc(-c2ccccc2)n[nH]1 [Example 15, 5-(o-Isopropylphenyl)-3-phenyl-1H-1,2,4-triazole] | ≥ 60
COc1cccc(-c2n[nH]c(-c3ccccc3C(C)C)n2)c1 [Example 16, 5-(o-Isopropylphenyl)-3-(m-methoxyphenyl)-1H-1,2,4-triazole] | ≥ 60
